Reference: PubChem BioAssay AID1033 (Sanford-Burnham Center for Chemical Genomics, 2008)
Active and inactive are the calls of the source. No rule for the calls is given here.

These molecules were tested against Chaperone protein DnaK (Escherichia coli (strain K12)) (UniProt P0A6Y8) (assay: binders of DnaK substrate-binding domain, biophysical, NMR, chaperone (AID 1033)). Details: Purified DnaK SBD, NMR ligand binding.
Sequence of Chaperone protein DnaK (Escherichia coli (strain K12)) (P0A6Y8 whole entry, looked up, the tested form may be a part): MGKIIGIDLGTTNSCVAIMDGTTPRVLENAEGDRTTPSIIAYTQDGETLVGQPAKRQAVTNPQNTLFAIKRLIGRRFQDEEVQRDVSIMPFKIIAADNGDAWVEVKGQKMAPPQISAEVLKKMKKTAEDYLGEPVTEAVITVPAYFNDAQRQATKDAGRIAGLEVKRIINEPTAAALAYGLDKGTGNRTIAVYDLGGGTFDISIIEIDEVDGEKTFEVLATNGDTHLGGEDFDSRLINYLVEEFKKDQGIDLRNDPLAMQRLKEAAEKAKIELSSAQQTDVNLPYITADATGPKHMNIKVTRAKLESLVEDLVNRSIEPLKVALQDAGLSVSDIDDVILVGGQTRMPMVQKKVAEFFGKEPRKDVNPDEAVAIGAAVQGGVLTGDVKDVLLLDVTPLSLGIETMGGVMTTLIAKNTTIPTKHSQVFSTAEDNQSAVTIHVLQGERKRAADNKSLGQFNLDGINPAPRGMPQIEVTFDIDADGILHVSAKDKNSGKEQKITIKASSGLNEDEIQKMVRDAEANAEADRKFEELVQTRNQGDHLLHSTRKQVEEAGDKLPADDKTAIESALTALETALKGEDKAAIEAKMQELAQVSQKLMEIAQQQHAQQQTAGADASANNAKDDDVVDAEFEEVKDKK

Structure (SMILES) | Kd
Cc1cc(=O)[nH]c(NCc2cccnc2)n1 | > 4 mM (inactive)
OCC1CN(Cc2ccccc2)CCO1 (configuration not stated) | > 4 mM (inactive)
Cc1cc(CN2C(=O)c3ccccc3C2=O)on1 | > 4 mM (inactive)
CC1(C)Cc2nc3[nH]c(=S)[nH]c(=O)c3cc2CO1 | > 4 mM (inactive)
COc1ccc2[nH]cc(CCNC(C)=O)c2c1 | > 4 mM (inactive)
O=c1n(-c2ccccc2)c(=O)n2n1CCCC2 | > 4 mM (inactive)
O=C(O)c1ccc(-n2cccc2)cc1 | > 4 mM (inactive)
Nc1ccn(C2O[C@H](CO)[C@@H](O)[C@H]2O)c(=O)n1 (some centres not stated) | > 4 mM (inactive)
CN1C(=O)C2CC=C(Cl)CC2C1=O (configuration not stated) | > 4 mM (inactive)
CC(=O)NC(NC(C)=O)c1ccccc1 | > 4 mM (inactive)
CCC(=O)Nc1ccc(-c2nn3c(C)nnc3s2)cc1 | > 4 mM (inactive)
CC(C)=CCc1c2c(c3occ(-c4ccc(O)c(O)c4)c(=O)c3c1O)C=CC(C)(C)O2 | > 4 mM (inactive)
NS(=O)(=O)c1ccc2c(c1)OCCO2 | > 4 mM (inactive)
O=C1NC(=S)NC(=O)C1=Cc1cccs1 | > 4 mM (inactive)
CC1(C)CCC(C)(C)c2cc(C(=O)O)ccc21 | > 4 mM (inactive)
COC(=O)c1ccc2ncccc2c1 | > 4 mM (inactive)
COc1ccc(C(=O)O)cc1OC | > 4 mM (inactive)
Nc1n[nH]c(=S)n1-c1ccccc1 | > 4 mM (inactive)
CC1=C(C(N)=O)C(c2cccs2)C(C(N)=O)=C(C)N1 | > 4 mM (inactive)
COCCOc1nc2ccccc2nc1C | > 4 mM (inactive)
COC(=O)C1[C@H]2C[C@H]3c4[nH]c5ccccc5c4CCN3C[C@@H]2CC[C@@H]1O (some centres not stated) | > 4 mM (inactive)
CNS(=O)(=O)c1cc(OC)ccc1OC | > 4 mM (inactive)
O=C(c1nc2ccccc2s1)N1CCSCC1 | > 4 mM (inactive)
Cc1cc(C(=O)N2CCN(S(C)(=O)=O)CC2)cs1 | > 4 mM (inactive)

Structure (SMILES) | Kd
CN1C(=O)C2C=CC1C1C(=O)N(c3ccccc3)C(=O)C21 (configuration not stated) | > 4 mM (inactive)
Cc1noc(C)c1C(=O)N1CCc2ccccc21 | > 4 mM (inactive)
NCc1ccc2c(c1)OCCCO2 | > 4 mM (inactive)
O=C(Nc1ccc2c(c1)OCO2)c1cccc(F)c1 | > 4 mM (inactive)
CC1CN(C(=O)c2ccncc2)CC(C)O1 (configuration not stated) | > 4 mM (inactive)
Cn1c(CN2CC(c3ccccc3)CC2=O)n[nH]c1=S (configuration not stated) | > 4 mM (inactive)
O=C(Nc1nncs1)Oc1ccccc1 | > 4 mM (inactive)
O=C(Nc1ccc2c(c1)OCO2)c1cnn2cccnc12 | > 4 mM (inactive)
CN1CCN(C(=O)Nc2cccc3ccccc23)CC1 | > 4 mM (inactive)
CC(=O)Oc1c(C)c(C)c2c(c1C)CCC(C)(CCCC(C)CCCC(C)CCCC(C)C)O2 (configuration not stated) | > 4 mM (inactive)
Nc1nc(CSc2ncn(-c3ccccc3)n2)cs1 | > 4 mM (inactive)
COC(=O)[C@]1(C)CC[C@]2(C)CC[C@]3(C)C4=CC=C5C(=CC(=O)C(O)=C5C)[C@]4(C)CC[C@@]3(C)[C@@H]2C1 | > 4 mM (inactive)
OCC1Cc2ccccc2CN1 (configuration not stated) | > 4 mM (inactive)
O=c1[nH]cc(NCc2ccco2)c(=O)[nH]1 | > 4 mM (inactive)
O=C(Nc1ccc2c(c1)OCO2)c1ccc(=O)[nH]n1 | > 4 mM (inactive)
O=C1C(=O)N(CNc2ncccn2)c2ccccc21 | > 4 mM (inactive)
N#CCN1C(=O)c2ccccc2S1(=O)=O | > 4 mM (inactive)
O=C(Cc1cccs1)N1CCOCC1 | > 4 mM (inactive)
COc1cc2c(cc1O)CC1c3c(cc(O)c(OC)c3-2)CCN1C (configuration not stated) | > 4 mM (inactive)
Oc1ccc(C(=S)N2CCOCC2)cc1 | > 4 mM (inactive)
O=c1c2ccccc2[nH]c2ncccc12 | > 4 mM (inactive)
CC(C)Nc1ncnc2c1nnn2C | > 4 mM (inactive)
CC(=O)Oc1ccc2c(c1OC(C)=O)OCC1(O)Cc3c(cc(OC(C)=O)c(OC(C)=O)c3OC(C)=O)C21 (configuration not stated) | > 4 mM (inactive)
CCNC(CC(=O)Nc1cccc([N+](=O)[O-])c1)C(=O)O (configuration not stated) | > 4 mM (inactive)

Structure (SMILES) | Kd
CNc1nc(C)nc(-n2nc(C)cc2C)n1 | > 4 mM (inactive)
O=S(=O)(N1CCCCC1)n1nnc2ccccc21 | inactive
N#Cc1cnn2c(C(F)(F)F)cc(C(F)(F)F)nc12 | > 4 mM (inactive)
Cc1ccc2c(c1)CCCN2C(=O)c1ccncc1 | > 4 mM (inactive)
O=C(O)c1cc2ccccc2[nH]1 | > 4 mM (inactive)
NC1=NC(=O)/C(=C/c2cccc([N+](=O)[O-])c2)S1 | > 4 mM (inactive)
CNC(=O)C1=NCCCc2cc(OC)c(OC)cc21 | > 4 mM (inactive)
CC(=O)c1c(O)n(C)c(=S)n(C)c1=O | > 4 mM (inactive)
Cn1c(=O)c2[nH]c(Nc3ccccc3)nc2n(C)c1=O | > 4 mM (inactive)
CCOC(=O)C1CCN(Cc2ccccc2)CC1=O (configuration not stated) | > 4 mM (inactive)
Nc1scc[n+]1CC(=O)[O-] | > 4 mM (inactive)
O=C(c1ccc(F)cc1)N1CCOCC1 | > 4 mM (inactive)
O=C(NCc1ccccc1)c1ccc[n+]([O-])c1 | > 4 mM (inactive)
COc1cc(C)nc(N(CCO)CCO)n1 | > 4 mM (inactive)
Nc1nc(-c2nc3ccccc3[nH]2)cs1 | > 4 mM (inactive)
CC(C)=NNC(=O)c1ccccc1 | > 4 mM (inactive)
O=C(O)C1=CCCNC1 | > 4 mM (inactive)
NCCc1cnc[nH]1 | > 4 mM (inactive)
NC(=O)C1CCN(C(=O)c2ccccc2)CC1 | > 4 mM (inactive)
COc1ccc2c(c1)OC/C(=C\c1ccc(OC)c(O)c1)C2=O | > 4 mM (inactive)
c1ccc(-c2nsc(N3CCCNCC3)n2)cc1 | > 4 mM (inactive)
CS(=O)(=O)Nc1ccccc1C(=O)c1ccccc1 | > 4 mM (inactive)
O=C1c2ccccc2C(=O)c2c1ccc(O)c2O | > 4 mM (inactive)
Cc1nc2ccc(C(=O)O)cc2nc1C | > 4 mM (inactive)

Structure (SMILES) | Kd
CC(=O)O[C@@H]1C=C[C@@]2(C)C(C[C@@H](OC(C)=O)[C@@]3(C)C4=CC(=O)O[C@@H](c5ccoc5)[C@]4(C)CCC23)C1(C)C (some centres not stated) | > 4 mM (inactive)
Cc1sc2nc(NCCO)[nH]c(=O)c2c1C | > 4 mM (inactive)
CCCc1cc(=O)[nH]c2nnc(SCC(C)=O)n12 | > 4 mM (inactive)
Cc1cc(C(=O)N2CCOCC2)c(C)o1 | > 4 mM (inactive)
Cc1c(C(=O)Nc2ccccn2)oc2ccccc12 | > 4 mM (inactive)
NC(=O)CCN1C(=O)c2ccccc2C1=O | > 4 mM (inactive)
O=C1CCCN1c1ccc(S(=O)O)cc1 | > 4 mM (inactive)
Cc1ccc2[nH]c3nc(=S)[nH]nc3c2c1 | > 4 mM (inactive)
COc1ccc2c(c1)[n+](=O)c(C(C)=O)c(C)n2[O-] | > 4 mM (inactive)
O=C1C2CC=C(Cl)CC2C(=O)N1c1ccccc1O (configuration not stated) | > 4 mM (inactive)
CN1CCC(O)N1C(=O)c1ccccc1O (configuration not stated) | > 4 mM (inactive)
O=C(Nc1ccccc1)C(=O)NC1CC1 | > 4 mM (inactive)
CC(CC(O)C1OC1(C)C)[C@@H]1CCC2(C)C3=CCC4C(C)(C)C(=O)CCC4(C)C3CC[C@@]12C (some centres not stated) | > 4 mM (inactive)
NC(=O)CSCc1ccc(Br)cc1 | > 4 mM (inactive)
O=C1NC(=S)N/C1=C\c1ccccc1F | > 4 mM (inactive)
CN1CCC2(CC1)CC1CC3C=CC1(CN2)O3 (configuration not stated) | > 4 mM (inactive)
O=c1[nH]nc(Cc2ccncc2)c2ccccc12 | > 4 mM (inactive)
Cc1oc(S(=O)(=O)N2CCCCC2)cc1C(=O)O | > 4 mM (inactive)
NC(=O)C1CCN(C(=O)c2ccccc2F)CC1 | > 4 mM (inactive)
NC(=O)CSc1nc2ccccc2o1 | > 4 mM (inactive)
COc1c(-c2ccccc2)oc2c(OC)cccc2c1=O | > 4 mM (inactive)
O=c1[nH]nc(Cc2ccccn2)c2ccccc12 | > 4 mM (inactive)
Cc1cc2ncc(C(=O)O)c(C)n2n1 | > 4 mM (inactive)
NC(=O)c1ccc(SCC(=O)O)c([N+](=O)[O-])c1 | > 4 mM (inactive)

Structure (SMILES) | Kd
O=C1CCC(=O)N1c1nc2ccccc2s1 | > 4 mM (inactive)
COC(=O)[C@@H]1OC(=O)C2OC23[C@@]1(C)CCC1[C@]2(C)C(C[C@@H](O)[C@]13C)C(C)(C)[C@H](OC(C)=O)C[C@@H]2OC(C)=O (some centres not stated) | > 4 mM (inactive)
O=C(c1ccccc1-c1ccccc1)N1CCOCC1 | > 4 mM (inactive)
O=C(NCc1ccncc1)c1cccc(F)c1 | > 4 mM (inactive)
Nc1ccc(S(=O)(=O)Nc2nccs2)cc1 | > 4 mM (inactive)
NC1=NCc2ccccc21 | > 4 mM (inactive)
O=C(O)CC1Sc2ccccc2NC1=O (configuration not stated) | > 4 mM (inactive)
O=C(Nc1ccccc1)c1cnc2n(c1=O)CCS2 | > 4 mM (inactive)
c1ccc2c(c1)nnn2C1CCNCC1 | > 4 mM (inactive)
OCc1csc(-c2ccccc2)n1 | > 4 mM (inactive)
CC(=O)Nc1ccc(S(=O)(=O)NCC2CCCO2)cc1 (configuration not stated) | > 4 mM (inactive)
CC(=O)O[C@@H]1CC2C(C)(C)C(=O)C=C[C@]2(C)C2CC[C@]3(C)C(=CC(=O)O[C@H]3c3ccoc3)[C@@]21C (some centres not stated) | > 4 mM (inactive)
CC(=O)c1c(C)nn(CC(=O)O)c1C | > 4 mM (inactive)
O=C1CSC(=O)N1c1cccc(O)c1 | > 4 mM (inactive)
CCCc1nc2ccccc2c2nc(N)nn12 | > 4 mM (inactive)
CC(C)=CCC/C(C)=C/CC/C(C)=C/CC/C(C)=C/CC/C(C)=C/CC/C(C)=C/CC/C(C)=C/CC/C(C)=C/CC/C(C)=C/CO | > 4 mM (inactive)
CCOC(=O)C1=C(C)N2CCN=C2S1 | > 4 mM (inactive)
COc1ccc2nc(NC(=O)c3cnccn3)sc2c1 | > 4 mM (inactive)
Nc1ccc2c(c1)CCC2=O | > 4 mM (inactive)
CC12CNCC(C)(CNC1)C2O (configuration not stated) | > 4 mM (inactive)
O=C(C1CCCCC1)N1CCN(c2ccccc2F)CC1 | > 4 mM (inactive)
